Experimental data published in publication PMC7031696 (Cell chemical biology, 2019).
Where two headings read alike, the source gives them in different places.

Tests used:
[1] = test system: Plasmodium falciparum 3D7-A10 parasites; test: Stage specificity assay (8-h exposure of synchronized stages, IC50^8h); type: cell-based; settings: for IC50: Plasmodium falciparum
[2] = test system: asynchronous 3D7-A10 parasite cultures; test: Standard 72-h exposure asexual blood stage susceptibility assay (IC50^72h); type: cell-based, Plasmodium falciparum; settings: Plasmodium falciparum, 3D7, 72 h, read-out: Overall (72hr assay) Mean IC50 (IC50^72h)
[3] = test system: 3D7-MR4 trophozoite parasite-infected RBCs; test: Metabolomic profiling (hydrophilic metabolite changes, UHPLC-MS); type: cell-based, Plasmodium falciparum

## CN(C)c1ccc2nc3ccc(=[N+](C)C)cc-3sc2c1 [Methylene blue, reference compound]
[1]; 3D7-A10
  Ratio lowest IC50 8hr/IC50 72hr: 1.8
[1]; 3D7, read-out: Early rings Mean IC50 (IC50^8h), 8-h exposure 0–8 hr, 3D7-A10, survival at 60 h
  IC50: 3.2 nM
[1]; 3D7, read-out: Early trophozoites Mean IC50 (IC50^8h), 8-h exposure 16–24 hr, 3D7-A10, survival at 60 h
  IC50: 5.9 nM
[1]; 3D7, read-out: Late rings Mean IC50 (IC50^8h), 8-h exposure 8–16 hr, 3D7-A10, survival at 60 h
  IC50: 13.3 nM
[1]; 3D7, read-out: Late trophozoites Mean IC50 (IC50^8h), 8-h exposure 24–32 hr, 3D7-A10, survival at 60 h
  IC50: 8.3 nM
[1]; 3D7, read-out: Schizonts Mean IC50 (IC50^8h), 8-h exposure 32–40 hr, 3D7-A10, survival at 60 h
  IC50: 64.8 nM
[1]; period when the parasite was most susceptible (lowest IC50^8h)
  Stage of peak activity (Figure 6): rings and trophozoites
[2]
  IC50: 1.8 nM
[3]; 10 × IC50^72h, 2.5 hr, trophozoites
  changes within the set of metabolites detected (low fold change group): did not induce major changes
[3]; metabolite 3-phosphoglycerate, log2 fold change
  Log2(fold changes) 3-phosphoglycerate: 0.1717
[3]; metabolite 4-Pyridoxic acid, log2 fold change
  Log2(fold changes) 4-Pyridoxic acid: 0.0000
[3]; metabolite 4-aminobutyrate, log2 fold change
  Log2(fold changes) 4-aminobutyrate: -0.1073
[3]; metabolite 4-phosphopantetheine, log2 fold change
  Log2(fold changes) 4-phosphopantetheine: 0.0000
[3]; metabolite 4-phosphopantothenate, log2 fold change
  Log2(fold changes) 4-phosphopantothenate: -0.3089
[3]; metabolite 5-aminopentanoic acid, log2 fold change
  Log2(fold changes) 5-aminopentanoic acid: 0.0000
[3]; metabolite 5-methyl-THF, log2 fold change
  Log2(fold changes) 5-methyl-THF: 0.0000
[3]; metabolite 5-phosphoribosyl-1-pyrophosphate, log2 fold change
  Log2(fold changes) 5-phosphoribosyl-1-pyrophosphate: 0.7627
[3]; metabolite 6-phospho-D-gluconate, log2 fold change
  Log2(fold changes) 6-phospho-D-gluconate: 0.0184
[3]; metabolite HVDD
  Log2(fold change) HVDD: 0.0000
[3]; metabolite Hydroxyisocaproic acid
  Log2(fold change) Hydroxyisocaproic acid: 0.0000
[3]; metabolite IDP
  Log2(fold change) IDP: 0.2471
[3]; metabolite IMP
  Log2(fold change) IMP: -0.1535
[3]; metabolite Inositol
  Log2(fold change) Inositol: 0.0000
[3]; metabolite Isopentyl-PP
  Log2(fold change) Isopentyl-PP: 0.0000
[3]; metabolite L-arginino-succinate
  Log2(fold change) L-arginino-succinate: 0.0000
[3]; metabolite LD
  Log2(fold change) LD: -0.0546
[3]; metabolite Myristoyl/tetradecanoyl-CoA
  Log2(fold change) Myristoyl/tetradecanoyl-CoA: 0.0000
[3]; metabolite N-Acetyl-L-alanine
  Log2(fold change) N-Acetyl-L-alanine: 0.0660
[3]; metabolite N-acetyl-L-ornithine
  Log2(fold change) N-acetyl-L-ornithine: -0.0972
[3]; metabolite N-acetyl-glucosamine-1/6-phosphate
  Log2(fold change) N-acetyl-glucosamine-1/6-phosphate: -0.3026
[3]; metabolite N-acetyl-glutamate
  Log2(fold change) N-acetyl-glutamate: -0.1200
[3]; metabolite N-acetyl-glutamine
  Log2(fold change) N-acetyl-glutamine: 0.0000
[3]; metabolite N-carbamoyl-L-aspartate
  Log2(fold change) N-carbamoyl-L-aspartate: -0.4399
[3]; metabolite NAD+
  Log2(fold change) NAD+: -0.1775
[3]; metabolite NADH
  Log2(fold change) NADH: 0.6869
[3]; metabolite NADP+
  Log2(fold change) NADP+: 0.0190
[3]; metabolite NADPH
  Log2(fold change) NADPH: 0.5257
[3]; metabolite O-acetyl-L-serine
  Log2(fold change) O-acetyl-L-serine: 0.0000
[3]; metabolite Octoluse 8/1P
  Log2(fold change) Octoluse 8/1P: -0.1481
[3]; metabolite Octoluse Bisphosphate
  Log2(fold change) Octoluse Bisphosphate: -0.0868
[3]; metabolite PD
  Log2(fold change) PD: -0.1726
[3]; metabolite PE
  Log2(fold change) PE: -0.0321
[3]; metabolite PEE
  Log2(fold change) PEE: 0.0787
[3]; metabolite PEEK
  Log2(fold change) PEEK: 0.2857
[3]; metabolite PVNF
  Log2(fold change) PVNF: 0.3021
[3]; metabolite Pyroglutamic acid
  Log2(fold change) Pyroglutamic acid: -0.1430
[3]; metabolite Pyrophosphate
  Log2(fold change) Pyrophosphate: 0.0000
[3]; metabolite Ribose-5-phosphate
  Log2(fold change) Ribose-5-phosphate: 0.0744
[3]; metabolite S-adenosyl-L-homocysteine
  Log2(fold change) S-adenosyl-L-homocysteine: -0.2409
[3]; metabolite S-adenosyl-L-methioninamine
  Log2(fold change) S-adenosyl-L-methioninamine: 0.0000
[3]; metabolite S-adenosyl-L-methionine
  Log2(fold change) S-adenosyl-L-methionine: 0.0000
[3]; metabolite S-methyl-5'-thioadenosine
  Log2(fold change) S-methyl-5'-thioadenosine: -0.0807
[3]; metabolite SD
  Log2(fold change) SD: -0.0525
[3]; metabolite SDL
  Log2(fold change) SDL: 0.0000
[3]; metabolite SID
  Log2(fold change) SID: 0.0000
[3]; metabolite Sedoheptulose bisphosphate
  Log2(fold change) Sedoheptulose bisphosphate: 0.0024
[3]; metabolite Thiamine pyrophosphate
  Log2(fold change) Thiamine pyrophosphate: -0.2290
[3]; metabolite UDP-D-glucose, log2 fold change
  Log2(fold changes) UDP-D-glucose: -0.0680
[3]; metabolite UDP-D-glucuronate, log2 fold change
  Log2(fold changes) UDP-D-glucuronate: 0.0789
[3]; metabolite UDP-N-acetyl-glucosamine, log2 fold change
  Log2(fold changes) UDP-N-acetyl-glucosamine: -0.1825
[3]; metabolite UDP, log2 fold change
  Log2(fold changes) UDP: -0.3881
[3]; metabolite UMP, log2 fold change
  Log2(fold changes) UMP: -0.2463
[3]; metabolite UTP, log2 fold change
  Log2(fold changes) UTP: -0.0408
[3]; metabolite hydroxyphenylpyruvate
  Log2(fold change) hydroxyphenylpyruvate: 0.0000
[3]; metabolite hydroxyproline/Aminolevulinate
  Log2(fold change) hydroxyproline/Aminolevulinate: 0.0000
[3]; metabolite hypoxanthine
  Log2(fold change) hypoxanthine: 0.0000
[3]; metabolite indole
  Log2(fold change) indole: 0.0000
[3]; metabolite inosine
  Log2(fold change) inosine: -0.4017
[3]; metabolite isoleucine
  Log2(fold change) isoleucine: 0.7210
[3]; metabolite lactate
  Log2(fold change) lactate: -0.1398
[3]; metabolite leucine
  Log2(fold change) leucine: 0.2614
[3]; metabolite lysine
  Log2(fold change) lysine: -0.0829
[3]; metabolite malate
  Log2(fold change) malate: -0.0400
[3]; metabolite maleic acid
  Log2(fold change) maleic acid: -0.0220
[3]; metabolite methionine
  Log2(fold change) methionine: 0.1258
[3]; metabolite myo-inositol
  Log2(fold change) myo-inositol: -0.2003
[3]; metabolite nicotinamide mononucleotide
  Log2(fold change) nicotinamide mononucleotide: -0.1519
[3]; metabolite nicotinate
  Log2(fold change) nicotinate: -0.3017
[3]; metabolite ornithine
  Log2(fold change) ornithine: 0.0000
[3]; metabolite orotate
  Log2(fold change) orotate: -0.5750
[3]; metabolite orotidine-5'-phosphate
  Log2(fold change) orotidine-5'-phosphate: -0.6269
[3]; metabolite oxaloacetate
  Log2(fold change) oxaloacetate: 0.0000
[3]; metabolite p-aminobenzoate
  Log2(fold change) p-aminobenzoate: 0.0000
[3]; metabolite p-hydroxybenzoate
  Log2(fold change) p-hydroxybenzoate: 0.0000
[3]; metabolite pantothenate
  Log2(fold change) pantothenate: -1.6576
[3]; metabolite phenylalanine
  Log2(fold change) phenylalanine: 0.0379
[3]; metabolite phenylpyruvate
  Log2(fold change) phenylpyruvate: 0.0000
[3]; metabolite phosphoenolpyruvate
  Log2(fold change) phosphoenolpyruvate: 0.1672
[3]; metabolite prephenate
  Log2(fold change) prephenate: 0.0000
[3]; metabolite proline
  Log2(fold change) proline: 0.1190
[3]; metabolite pyridoxine
  Log2(fold change) pyridoxine: -0.1182
[3]; metabolite pyruvate
  Log2(fold change) pyruvate: -0.0447
[3]; metabolite riboflavin
  Log2(fold change) riboflavin: -0.0900
[3]; metabolite ribose
  Log2(fold change) ribose: 0.0000
[3]; metabolite ribose-phosphate
  Log2(fold change) ribose-phosphate: -0.1993
[3]; metabolite ribulose-5-phosphate
  Log2(fold change) ribulose-5-phosphate: -0.1201
[3]; metabolite serine
  Log2(fold change) serine: -0.0692
[3]; metabolite sn-glycerol-3-phosphate
  Log2(fold change) sn-glycerol-3-phosphate: 0.0549
[3]; metabolite succinate/Methylmalonic acid
  Log2(fold change) succinate/Methylmalonic acid: 0.4289
[3]; metabolite succinyl-CoA/methylmalonyl-CoA
  Log2(fold change) succinyl-CoA/methylmalonyl-CoA: 0.0000
[3]; metabolite taurine
  Log2(fold change) taurine: 0.1250
[3]; metabolite thiamine
  Log2(fold change) thiamine: -0.2233
[3]; metabolite threonine/homoserine
  Log2(fold change) threonine/homoserine: -0.1021
[3]; metabolite thymidine
  Log2(fold change) thymidine: 0.0000
[3]; metabolite thymine, log2 fold change
  Log2(fold changes) thymine: 0.0000
[3]; metabolite trehalose-6-Phosphate, log2 fold change
  Log2(fold changes) trehalose-6-Phosphate: 0.0000
[3]; metabolite tryptophan, log2 fold change
  Log2(fold changes) tryptophan: 0.0214
[3]; metabolite tyrosine, log2 fold change
  Log2(fold changes) tyrosine: 0.0876
[3]; metabolite uridine, log2 fold change
  Log2(fold changes) uridine: -0.4227
